Legend:
Type in all cases: physicochemical
[1] = Thermal stability by thermogravimetric analysis (TGA); details: 10° C./min to 600° C. under nitrogen
Description: This Example illustrates the thermal stability of MCPN. Thermogravimetric analysis (TGA) was conducted to determine the temperature that causes structural change in MCPN. […] TGA data was collected on a TA Q5000 Analyzer with a temperature ramping rate of 10° C./min from room temperature to 600° C. under nitrogen gas flow.

[2] = Adsorption or inclusion level of 1-MCP in adsorbents/encapsulants (release in water, headspace GC)
Description: This Example provides specific examples of methods for adsorbing 1-MCP into a MCPN. Adsorption of 1-MCP was carried out using both a modified solid method (method A) and a solution-based method (method B), as disclosed herein. The general protocol in both methods included a dual-vessel system, where 1-MCP was generated in the first vessel, also referred to as the generation vessel, and the adsorption took place in the second vessel, also referred to as the adsorption vessel. Before adsorption, 50 mg of adsorbent was first dried in a vacuum oven at 100° C. overnight and sealed in the adsorption vessel. […]
This Example illustrates some of the differences between the MCPNs of the present disclosure and prior art encapsulants (cyclodextrins). […] The percentage adsorbed or encapsulated was quantified by taking 55 mg of A1 or E4 and mixed with 25 ml of water in 500 ml sealed glass bottles to release 1-MCP.
Headspace sample was collected and injected into gas chromatography using methods described in Mir, “Harvest Maturity, Storage Temperature and 1-MCP Application Frequency Alter Firmness Retention and Chlorophyll Fluorescence of “Redchief Delicious” Apples,” Journal of American society of horticultural science, 2001, 126(5): 618-624). […] The peak area was used to quantify the concentration.

[3] = Release rate of 1-MCP by hydration with water (method C)
Description: This Example illustrates the release rate of 1-MCP from MCPNs and cyclodextrins. […] Encapsulation of sample S4 was carried out using methods A and D. Method C was used for the release of 1-MCP, where about 25 mg of S1 and S4 were hydrated with 25 mL of water in a 500 mL glass bottle under agitation. Headspace samples were withdrawn periodically to quantify the released 1-MCP.

[4] = Stability in water by powder X-ray diffraction; details: soaked in water 1 hour, 5 hours, 20 hours

Structure (SMILES) | Decomposing temperature [1] [°C] | Adsorption or inclusion level ([2]; 1-MCP loaded by method A (solid method)) [%] | Adsorption or inclusion level ([2]; 1-MCP loaded by method D (solution in pH 4.6 buffer, 50 mg S4/mL)) [%] | Time to complete release of 1-MCP ([3]; loaded by method A) | Time to complete release of 1-MCP ([3]; loaded by method D) [min] | % Released ([3]; loaded by method D, 5 min) [%] | % Released ([3]; loaded by method D, 15 min) [%] | % Released ([3]; loaded by method D, 25 min) [%] | % Released ([3]; loaded by method D, 40 min) [%] | % Released ([3]; loaded by method D, 60 min) [%] | Change of X-ray pattern / structure after soaking in water [4]
OC[C@H]1O[C@@H]2O[C@H]3[C@H](O)[C@@H](O)[C@@H](O[C@H]4[C@H](O)[C@@H](O)[C@@H](O[C@H]5[C@H](O)[C@@H](O)[C@@H](O[C@H]6[C@H](O)[C@@H](O)[C@@H](O[C@H]7[C@H](O)[C@@H](O)[C@@H](O[C@H]8[C@H](O)[C@@H](O)[C@@H](O[C@H]1[C@H](O)[C@H]2O)O[C@@H]8CO)O[C@@H]7CO)O[C@@H]6CO)O[C@@H]5CO)O[C@@H]4CO)O[C@@H]3CO [C-b, beta cyclodextrin] | 280 |  |  |  |  |  |  |  |  |  | 
OC[C@H]1O[C@@H]2O[C@H]3[C@H](O)[C@@H](O)[C@@H](O[C@H]4[C@H](O)[C@@H](O)[C@@H](O[C@H]5[C@H](O)[C@@H](O)[C@@H](O[C@H]6[C@H](O)[C@@H](O)[C@@H](O[C@H]7[C@H](O)[C@@H](O)[C@@H](O[C@H]1[C@H](O)[C@H]2O)O[C@@H]7CO)O[C@@H]6CO)O[C@@H]5CO)O[C@@H]4CO)O[C@@H]3CO [S4, Alpha cyclodextrin] | 280 | 0.05 | 2.46 | almost instantaneously | ≤ 40 | 39 | 62 | 84 | 100 | 100 | dramatic structure change after 1 hour soaking in water

From patent publication US11091414B2, “Complexes of 1-methylcyclopropene with metal coordination polymer networks” (AGROFRESH INC., priority 2014, dated 2021)
